Key:
[1] = tested on: PI3K pathway in MDA-MB-361, MDA-MB-453 and SK-Br3 cells; test: PI3K pathway Western blot in cell lines with elevated PI3Kα activity; format: cell-based, human; settings: 2 h treatment; MDA-MB-361, MDA-MB-453, SK-Br3
Experimental: Cells comprising one or more mutations in PI3Kα, including but not limited to breast cancer cells (e.g., MDA-MB-361, T47D, SKOV-3), and cells comprising one or more mutations in PTEN including but not limited to prostate cancer cells (e.g., PC3), are typically grown in cell growth media such as DMEM supplemented with fetal bovine serum and/or antibiotics, and grown to confluency. Cells are then treated with various concentrations of test compound for about 2 hours and subsequently lysed in cell lysis buffer. Lysates are subjected to SDS-PAGE followed by Western blot analysis to detect downstream signaling markers, including but not limited to pAKT(S473), pAKT(T308), pS6, and p4E-BP1.
MDA-MB-361(PIK3CA-E545K), MDA-MB-453 (PIK3CA-H1047R), and SK-Br3 (Her2) cells were treated with various concentrations of Compound A for 2 h and subsequently lysed. Lysates were subjected to SDS-PAGE followed by Western blot analysis as described above to detect downstream pathway markers.

[2] = tested on: Akt and S6 phosphorylation; test: Western blot of PI3K pathway phosphorylation (Akt, S6) in cancer cells; format: cell-based
B cell function = B cell function in vivo, antibody production after TNP-Ficoll immunization; settings: mice immunized with TNP-Ficoll; 70 mg/kg GDC0941; 30, 60 or 120 mg/kg Compound A; 7 days; FIG. 8
Experimental: Mice were immunized with TNP-Ficoll and treated with 1) vehicle; 2) 70 mg/kg GDC0941; 3) 30 mg/kg Compound A; 4) 60 mg/kg Compound A; or 5) 120 mg/kg Compound A for 7 days. Antibody production was measured as a percentage of control group that were treated with vehicle.

[3] = tested on: 786-O cells (non-mutated PI3Kα) tumors; test: 786-O human kidney carcinoma xenograft; format: in vivo, mice; settings: Compound A orally 60 and 120 mg/kg; 1 mg/kg (QD) oral solution
Experimental: Compound A was administered orally at 60 and 120 mg/kg and compound A was administered orally as a solution at 1 mg/kg (QD). For example, a PI3Kα inhibitor is compared to a kinase inhibitor with specificity for mTor. […] FIG. 6C also provides biochemical potency data for the two compared inhibitors. PI3 Kinase α, β, γ and δ activity was assayed using the PI3 Kinase HTRF® assay kit (Millipore Corporation). Purified recombinant PI3Kα, PI3Kβ, PI3Kγ and PI3Kδ were obtained from Millipore Corporation. […] Emission ratios were converted into percent inhibitions and imported into GraphPad Prism software. […] IC50 values were determined using a nonlinear regression model available in GraphPad Prism 5.

[4] = Steady-state blood glucose (Example 42); format: in vivo, Mus musculus; settings: Compound B 0.3 mg/kg, Compound A 60 mg/kg, alone or combined; returned to normal within an hour of dosing
Experimental: Blood glucose levels were measured via a tail knick using a FreeStyle® handheld blood glucose monitor (Abbott Laboratories) at 5, 15, 30, 60, and 90 minutes after the last dose (Day 29).

[5] = tested on: tumor cells harboring PI3K α mutations; test: Proliferation of tumor cells with or without PI3K α mutations; format: cell-based; settings: FIG. 13
[6] = tested on: MDA-MB-361 (PI3Kα/HER2 carcinoma) tumors; test: In vivo efficacy in xenogenic mouse model of breast cancer; parameters: species or system nude mice; settings: 70 mg/kg Pan-PI3K inhibitor; 60 mg/kg compound A
Experimental: Blood glucose was monitored periodically following administration of treatment.
Treatment of tumors (MDA-MB-361) with compounds was discontinued on Day 30. Tumors were measured every 2-5 days.

steady-state blood glucose level after the last dose (Day 29) [4]: slight increase
Compound: Nc1nc2cc(-c3ccc4ncc(C(=O)N5CCOCC5)n4c3)ccc2o1 [Compound A]
inhibition of the PI3K pathway (Western blot, FIG. 11) [1]: inhibition of the PI3K pathway
inhibition of Akt phosphorylation at serine 473 ([2]; FIG. 12A): inhibition of Akt phosphorylation at serine 473
inhibition of the PI3K pathway in cell lines with elevated PI3K α activity ([2]; MDA-MB-361, MDA-MB-453, SKBr3 breast cancer cells, FIG. 11): inhibition of the PI3K pathway
B cell function in vivo (antibody production, percentage of vehicle control) (B cell function): not
inhibition of kinase activity and tumor growth in 786-O model (FIG. 6) [3]: decreased activity
inhibition of proliferation of tumor cells [5]: preferentially inhibits proliferation
tumor weight in breast cancer model (FIG. 9 left panel) [6]: reduction in tumor weight

Source: patent US20160089371A1, “Combination of Kinase Inhibitors and Uses Thereof” (INTELLIKINE, LLC, priority 2013, published 2016)
